Test results: US8778921B2, “Ansamycin hydroquinone compositions” (Infinity Pharmaceuticals, Inc., priority 2008, dated 2014)

Assays:
[1] = Solubilizing or suspending agents: color change as indication of oxidation of 17-AG-HQ to 17-AG; format: physicochemical; conditions: argon headspace, checked up to one hour
Description: Solvents (2 mL) were pipetted out into labeled vials (Table 4). After purging the headspace with argon, the solvent vials were chilled at 4° C. for 1 hour. 17-AG-HQ of Example 2 (10 mg) was added each solvent vial and headspace was purged again with argon. The vials were checked for color change for up to one hour. Color change is an indication of stability: 17-AG-HQ is yellow while 17-AG is pink, thus a color change from yellow to pink would indicate oxidation of 17-AG-HQ to 17-AG. This listing of suitable solvents or suspending agents is also applicable for solvating/suspending the hydroquinones of Examples 3-6, 8, 10 or 11.

[2] = Stability at 40° C. and 75% relative humidity (percent purity by HPLC); format: physicochemical; conditions: 40° C. and 75% RH
Description: As used herein, a “stable composition” refers a composition comprising a sulfur-containing compound and a baseline amount of the compound of formula (I) (e.g., such as percent purity as measured by HPLC) such that, after being subjected to standard stability conditions (e.g., 40° C. and 75% relative humidity) for a specified period of time (e.g., 1 day, 2 days, 3 days, 4 days, 5 days, 7 days, 14 days, 21 days, or 30 days), at least about 80% of the original amount of the compound of formula (I) remains in the composition (i.e., has not oxidized to a compound of formula (II) or degraded to other by-products). In certain embodiments, at least about 85%, at least about 90%, at least about 91%, at least about 92%, at least about 93%, at least about 94%, or at least about 95% of the original amount of the hydroquinone compound of formula (I) remains in the composition for a specified period of time (e.g., 1 day, 2 days, 3 days, 4 days, 5 days, 7 days, 14 days, 21 days, or 30 days).
The stability data for 17-AG-HQ of Example 2 when kept at 40° C. and 75% relative humidity (RH) is depicted in FIG. 8 (see Table 2 for tabulated stability data). It was observed that 17-AG-HQ of Example 2 completely oxidizes to its quinone form in two weeks at 40° C. and […] as determined by HPLC.

[3] = Table 12, formulations of 17-AG-HQ of Example 2

CO[C@H]1/C=C\C=C(/C)C(=O)Nc2cc(O)c(N)c(c2O)C[C@@H](C)C[C@H](OC)[C@H](O)[C@@H](C)/C=C(\C)[C@@H]1OC(N)=O [17-AG-HQ of Example 2, 17-amino-geldanamycin hydroquinone]
Observations ([1]; Acetone, 10 mg in 2 mL solvent chilled at 4° C.): Dissolves with no color change | Observations ([1]; DMSO:Acetonitrile:TFA (80:20:0.1), 10 mg in 2 mL solvent chilled at 4° C.): Dissolves with color change to rusty | Observations ([1]; Dichloromethane, 10 mg in 2 mL solvent chilled at 4° C.): Dissolves with no color change | Observations ([1]; Ethanol, 10 mg in 2 mL solvent chilled at 4° C.): Dissolves with no color change | Observations ([1]; Methanol, 10 mg in 2 mL solvent chilled at 4° C.): Dissolves with color change to red | Observations ([1]; Mineral Oil, 10 mg in 2 mL chilled at 4° C.): Suspends with no color change | Observations ([1]; Propylene Glycol, 10 mg in 2 mL solvent chilled at 4° C.): Dissolves with color change to rusty | Observations ([1]; Toluene, 10 mg in 2 mL solvent chilled at 4° C.): Dissolves with no color change | Observations ([1]; Xylene, 10 mg in 2 mL solvent chilled at 4° C.): Dissolves with no color change | time in which the hydroquinone completely oxidizes to its quinone form ([2]; determined by HPLC): two | stability compared to 17-AG-HQ HCl salt of Example 1 ([2]; more prone to oxidation): less stable | Percent Purity of 17-AG-HQ T = 0 Days ([2]; Table 2): 92% | Percent Purity of 17-AG-HQ T = 2 Days ([2]; Table 2): 66% | Percent Purity of 17-AG-HQ T = 5 Days ([2]; Table 2): 22% | Percent Purity of 17-AG-HQ T = 14 Days ([2]; Table 2): 0% | Percent Purity of 17-AG-HQ T = 30 Days ([2]; Table 2): 0% | Percent Purity of 17-AG-HQ T = 0 Days [2, 3]: 92% | Percent Purity of 17-AG-HQ T = 2 Days [2, 3]: 66% | Percent Purity of 17-AG-HQ T = 5 Days [2, 3]: 22% | Percent Purity of 17-AG-HQ T = 14 Days [2, 3]: 0% | Percent Purity of 17-AG-HQ T = 30 Days [2, 3]: 0%
